Data: ChEMBL document CHEMBL1155340, “Discovery of a novel azepine series of potent and selective 5-HT2C agonists as potential treatments for urinary incontinence” (Bioorg Med Chem Lett, 2009)

Tests used:
[1] = target: T1, 5-hydroxytryptamine receptor 2C (Homo sapiens, UniProt P28335)
T1 sequence (P28335 whole entry): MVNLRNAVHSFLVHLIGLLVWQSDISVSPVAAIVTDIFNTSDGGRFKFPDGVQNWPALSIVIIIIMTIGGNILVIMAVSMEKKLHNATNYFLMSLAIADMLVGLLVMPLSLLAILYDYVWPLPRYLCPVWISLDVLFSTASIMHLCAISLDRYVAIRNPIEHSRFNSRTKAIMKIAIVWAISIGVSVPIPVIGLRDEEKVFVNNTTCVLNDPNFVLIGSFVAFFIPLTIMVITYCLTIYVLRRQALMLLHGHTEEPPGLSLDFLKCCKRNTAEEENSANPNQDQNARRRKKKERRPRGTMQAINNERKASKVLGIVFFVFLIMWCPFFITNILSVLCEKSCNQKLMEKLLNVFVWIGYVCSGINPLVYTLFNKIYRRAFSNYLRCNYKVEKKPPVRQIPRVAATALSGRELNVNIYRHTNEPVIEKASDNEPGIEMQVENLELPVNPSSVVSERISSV

physchem = conditions: buffer, pH 7.4
Description: Lipophilicity, log D at pH 7.4

in vitro = conditions: human, liver microsomes
Description: (§1) Metabolic stability in human liver microsomes assessed per mg of protein

MDR1 = assay: in vitro; conditions: dog, MDCK-MDR1
Description: Apparent membrane permeability across apical to basolateral side of MDR1 expressing MDCK cells

[2] = target: T2, 5-hydroxytryptamine receptor 2B (Homo sapiens, UniProt P41595)
[3] = target: T3, 5-hydroxytryptamine receptor 2C (Homo sapiens) (UniProt P28335); assay: Agonist activity at human recombinant 5HT2C receptor expressed in CHO K1 cells assessed as induction of calcium mobilization by FLIPR assay relative to 5-HT; type: functional, cell-based
T3 sequence (whole entry): T1 sequence (P28335 whole entry)

[4] = target: T2, 5-hydroxytryptamine receptor 2B; assay: Agonist activity at human recombinant 5HT2B receptor assessed as induction of calcium mobilization at 10 uM by FLIPR assay relative to 5-HT; type: functional
Liver microsomes = conditions: human
Description: as §1

[5] = target: T2, 5-hydroxytryptamine receptor 2B; assay: Agonist activity at human recombinant 5HT2B receptor assessed as induction of calcium mobilization by FLIPR assay relative to 5-HT; type: functional
Homo sapiens = species on record: Homo sapiens; assay: Selectivity ratio of EC50 for human recombinant 5HT2B receptor to EC50 for human recombinant 5HT2A receptor
[6] = target: 5-hydroxytryptamine receptor 2A (Canis lupus familiaris, UniProt O46635); assay: Agonist activity at 5-HT2A receptor in dog bladder strip; type: functional
[7] = target: 5-hydroxytryptamine receptor 2A (Canis lupus familiaris) (UniProt O46635); assay: Agonist activity at 5-HT2A receptor in dog bladder strip relative to 5-HT; type: functional
Canis familiaris = assay: Increase of peak urethral pressure in dog model of stress incontinence at 150 ug/kg, iv after 60 mins; type: functional, Canis lupus familiaris, Urethra
Cytochrome P450 2C9 = Cytochrome P450 2C9 (Homo sapiens, UniProt P11712); assay: Inhibition of CYP2C9; type: ADME
Cytochrome P450 3A4 = Cytochrome P450 3A4 (Homo sapiens, UniProt P08684); assay: Inhibition of CYP3A4; type: ADME
Cytochrome P450 1A2 = target: T4, Cytochrome P450 1A2 (Homo sapiens, UniProt P05177); assay: Inhibition of CYP1A2; type: ADME
T4 sequence (P05177 whole entry): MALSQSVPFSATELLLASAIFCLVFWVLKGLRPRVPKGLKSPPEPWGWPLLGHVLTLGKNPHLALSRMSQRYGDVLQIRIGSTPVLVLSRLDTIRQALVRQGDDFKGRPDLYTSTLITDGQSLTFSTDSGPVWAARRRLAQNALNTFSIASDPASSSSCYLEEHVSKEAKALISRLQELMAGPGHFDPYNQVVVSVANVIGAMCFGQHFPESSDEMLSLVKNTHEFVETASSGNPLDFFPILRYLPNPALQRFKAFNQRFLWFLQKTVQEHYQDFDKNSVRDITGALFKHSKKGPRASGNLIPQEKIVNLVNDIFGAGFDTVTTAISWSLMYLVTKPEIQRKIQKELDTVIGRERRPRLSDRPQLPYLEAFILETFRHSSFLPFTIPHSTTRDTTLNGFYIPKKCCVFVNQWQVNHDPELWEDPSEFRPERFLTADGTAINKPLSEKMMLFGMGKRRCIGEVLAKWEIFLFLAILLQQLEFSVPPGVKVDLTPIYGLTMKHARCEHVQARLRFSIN

[8] = Plasma concentration in dog model of stress incontinence at 150 ug/kg, iv after 60 mins; type: ADME, organism-based, Canis lupus familiaris; conditions: 0.15 mg/kg
[9] = target: Voltage-gated inwardly rectifying potassium channel KCNH2 (Homo sapiens, UniProt Q12809); assay: Displacement of dofrtilide from human ERG channel
[10] = target: T5, 5-hydroxytryptamine receptor 3A (Homo sapiens, UniProt P46098); assay: Inhibition of 5HT3 receptor
T5 sequence (P46098 whole entry): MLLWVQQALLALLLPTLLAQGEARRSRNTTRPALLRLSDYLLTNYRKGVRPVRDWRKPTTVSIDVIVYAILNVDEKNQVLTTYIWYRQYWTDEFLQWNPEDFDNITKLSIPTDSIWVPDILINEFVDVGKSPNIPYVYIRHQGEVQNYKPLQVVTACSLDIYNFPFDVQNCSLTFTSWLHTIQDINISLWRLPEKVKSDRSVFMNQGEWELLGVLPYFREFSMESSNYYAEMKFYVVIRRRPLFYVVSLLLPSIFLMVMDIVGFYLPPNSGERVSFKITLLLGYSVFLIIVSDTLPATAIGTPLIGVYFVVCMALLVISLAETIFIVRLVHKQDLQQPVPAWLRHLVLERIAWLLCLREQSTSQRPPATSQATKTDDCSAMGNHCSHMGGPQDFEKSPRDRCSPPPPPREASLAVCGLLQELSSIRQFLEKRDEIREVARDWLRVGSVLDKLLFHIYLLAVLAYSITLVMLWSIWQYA

[11] = target: Muscarinic acetylcholine receptor M3 (Homo sapiens, UniProt P20309); assay: Inhibition of muscarinic receptor 3
Cytochrome P450 2D6 = Cytochrome P450 2D6 (Homo sapiens, UniProt P10635); assay: Inhibition of CYP2D6; type: ADME
[12] = target: Beta-2 adrenergic receptor (Homo sapiens, UniProt P07550); assay: Inhibition of beta2 adrenergic receptor
Beta-2 adrenergic receptor, sequence (P07550 whole entry): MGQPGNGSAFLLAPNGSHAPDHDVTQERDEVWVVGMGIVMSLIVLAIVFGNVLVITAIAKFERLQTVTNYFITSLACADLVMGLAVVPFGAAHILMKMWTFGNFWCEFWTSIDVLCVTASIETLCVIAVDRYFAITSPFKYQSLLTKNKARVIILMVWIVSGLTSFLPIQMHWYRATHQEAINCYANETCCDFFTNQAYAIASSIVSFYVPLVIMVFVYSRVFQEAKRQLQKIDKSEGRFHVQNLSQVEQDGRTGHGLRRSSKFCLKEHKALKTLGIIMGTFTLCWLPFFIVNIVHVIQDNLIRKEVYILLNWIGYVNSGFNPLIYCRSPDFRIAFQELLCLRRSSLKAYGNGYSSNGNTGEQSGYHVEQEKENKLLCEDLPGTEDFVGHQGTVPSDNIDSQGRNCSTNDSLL

T2 sequence (P41595 whole entry): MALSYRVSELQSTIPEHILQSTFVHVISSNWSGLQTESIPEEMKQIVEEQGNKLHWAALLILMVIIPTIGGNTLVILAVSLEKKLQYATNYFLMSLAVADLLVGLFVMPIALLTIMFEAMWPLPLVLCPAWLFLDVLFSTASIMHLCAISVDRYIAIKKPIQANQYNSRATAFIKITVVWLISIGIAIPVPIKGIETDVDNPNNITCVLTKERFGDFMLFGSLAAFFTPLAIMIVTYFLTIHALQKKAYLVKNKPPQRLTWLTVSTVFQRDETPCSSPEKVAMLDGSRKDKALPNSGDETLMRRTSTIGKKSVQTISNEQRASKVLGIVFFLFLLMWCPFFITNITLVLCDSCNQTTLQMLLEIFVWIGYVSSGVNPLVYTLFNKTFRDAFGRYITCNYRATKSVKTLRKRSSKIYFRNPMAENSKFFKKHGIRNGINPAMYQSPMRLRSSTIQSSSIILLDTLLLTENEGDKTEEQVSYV
5-hydroxytryptamine receptor 2A (Canis lupus familiaris), sequence (O46635 whole entry): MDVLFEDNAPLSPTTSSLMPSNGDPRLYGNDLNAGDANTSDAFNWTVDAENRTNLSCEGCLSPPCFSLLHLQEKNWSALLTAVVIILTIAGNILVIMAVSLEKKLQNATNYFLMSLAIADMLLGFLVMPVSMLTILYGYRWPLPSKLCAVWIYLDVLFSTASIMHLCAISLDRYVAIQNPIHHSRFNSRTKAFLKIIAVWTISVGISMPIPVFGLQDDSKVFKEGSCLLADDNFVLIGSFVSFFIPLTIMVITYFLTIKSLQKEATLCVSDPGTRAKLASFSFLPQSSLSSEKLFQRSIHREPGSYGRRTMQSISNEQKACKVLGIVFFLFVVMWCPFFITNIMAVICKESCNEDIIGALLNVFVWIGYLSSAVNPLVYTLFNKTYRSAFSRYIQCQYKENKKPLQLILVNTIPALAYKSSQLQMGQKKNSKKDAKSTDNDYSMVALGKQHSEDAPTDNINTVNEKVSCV
5-hydroxytryptamine receptor 2A, sequence (O46635 whole entry): as above
Cytochrome P450 2C9, sequence (P11712 whole entry): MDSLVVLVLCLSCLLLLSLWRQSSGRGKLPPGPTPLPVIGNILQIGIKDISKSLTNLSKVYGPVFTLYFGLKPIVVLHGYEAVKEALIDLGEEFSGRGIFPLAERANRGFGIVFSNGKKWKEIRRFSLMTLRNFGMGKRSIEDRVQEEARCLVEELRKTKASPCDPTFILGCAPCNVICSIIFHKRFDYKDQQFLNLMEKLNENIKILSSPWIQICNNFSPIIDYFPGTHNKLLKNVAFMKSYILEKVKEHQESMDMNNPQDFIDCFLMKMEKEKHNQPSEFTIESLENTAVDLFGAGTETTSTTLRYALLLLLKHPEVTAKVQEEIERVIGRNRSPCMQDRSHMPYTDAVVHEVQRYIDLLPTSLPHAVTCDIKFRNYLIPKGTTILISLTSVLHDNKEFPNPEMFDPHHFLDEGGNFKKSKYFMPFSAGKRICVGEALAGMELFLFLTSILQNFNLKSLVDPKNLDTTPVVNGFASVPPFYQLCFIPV
Muscarinic acetylcholine receptor M3, sequence (P20309 whole entry): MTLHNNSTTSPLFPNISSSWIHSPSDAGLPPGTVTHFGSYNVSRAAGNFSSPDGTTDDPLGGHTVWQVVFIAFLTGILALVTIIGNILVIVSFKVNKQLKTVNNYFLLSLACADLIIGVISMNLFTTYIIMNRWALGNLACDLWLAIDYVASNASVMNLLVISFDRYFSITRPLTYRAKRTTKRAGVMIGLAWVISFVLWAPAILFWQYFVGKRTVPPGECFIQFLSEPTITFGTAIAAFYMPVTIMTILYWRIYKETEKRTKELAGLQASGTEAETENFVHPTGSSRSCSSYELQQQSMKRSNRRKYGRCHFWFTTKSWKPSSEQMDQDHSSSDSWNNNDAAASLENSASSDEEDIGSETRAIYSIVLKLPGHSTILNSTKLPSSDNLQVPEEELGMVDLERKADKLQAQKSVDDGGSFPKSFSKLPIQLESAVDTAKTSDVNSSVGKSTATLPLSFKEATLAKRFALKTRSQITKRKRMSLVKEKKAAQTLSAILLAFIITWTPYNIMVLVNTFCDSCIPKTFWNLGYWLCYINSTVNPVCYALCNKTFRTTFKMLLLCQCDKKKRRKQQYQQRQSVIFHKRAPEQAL
Cytochrome P450 3A4, sequence (P08684 whole entry): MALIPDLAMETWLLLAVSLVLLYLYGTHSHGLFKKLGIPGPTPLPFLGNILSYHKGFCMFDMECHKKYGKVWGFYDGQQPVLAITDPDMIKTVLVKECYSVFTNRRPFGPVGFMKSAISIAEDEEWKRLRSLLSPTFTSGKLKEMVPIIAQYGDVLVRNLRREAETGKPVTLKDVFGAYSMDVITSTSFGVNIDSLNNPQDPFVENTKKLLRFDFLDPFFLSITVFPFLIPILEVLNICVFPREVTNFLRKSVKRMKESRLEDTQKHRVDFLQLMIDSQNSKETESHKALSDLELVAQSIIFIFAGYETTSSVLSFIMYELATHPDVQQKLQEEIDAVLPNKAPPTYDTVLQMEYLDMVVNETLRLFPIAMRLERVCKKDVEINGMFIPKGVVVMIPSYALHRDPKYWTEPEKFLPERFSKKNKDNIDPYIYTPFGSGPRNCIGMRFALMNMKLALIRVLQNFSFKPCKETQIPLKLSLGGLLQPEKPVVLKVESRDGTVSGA
Cytochrome P450 2D6, sequence (P10635 whole entry): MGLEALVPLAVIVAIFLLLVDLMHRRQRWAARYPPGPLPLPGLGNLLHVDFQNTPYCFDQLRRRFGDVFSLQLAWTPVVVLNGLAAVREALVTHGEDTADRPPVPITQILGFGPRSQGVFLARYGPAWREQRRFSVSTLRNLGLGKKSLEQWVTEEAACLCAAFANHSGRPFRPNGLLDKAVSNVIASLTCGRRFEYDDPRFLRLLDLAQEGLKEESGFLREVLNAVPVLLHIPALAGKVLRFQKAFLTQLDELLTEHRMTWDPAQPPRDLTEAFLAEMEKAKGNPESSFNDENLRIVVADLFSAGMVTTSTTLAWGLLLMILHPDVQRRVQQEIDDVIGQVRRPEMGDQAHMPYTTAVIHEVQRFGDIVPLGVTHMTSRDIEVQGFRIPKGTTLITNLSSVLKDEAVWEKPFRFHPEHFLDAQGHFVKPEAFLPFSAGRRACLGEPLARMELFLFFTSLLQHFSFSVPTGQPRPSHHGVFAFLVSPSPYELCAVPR
Voltage-gated inwardly rectifying potassium channel KCNH2, sequence (Q12809 whole entry): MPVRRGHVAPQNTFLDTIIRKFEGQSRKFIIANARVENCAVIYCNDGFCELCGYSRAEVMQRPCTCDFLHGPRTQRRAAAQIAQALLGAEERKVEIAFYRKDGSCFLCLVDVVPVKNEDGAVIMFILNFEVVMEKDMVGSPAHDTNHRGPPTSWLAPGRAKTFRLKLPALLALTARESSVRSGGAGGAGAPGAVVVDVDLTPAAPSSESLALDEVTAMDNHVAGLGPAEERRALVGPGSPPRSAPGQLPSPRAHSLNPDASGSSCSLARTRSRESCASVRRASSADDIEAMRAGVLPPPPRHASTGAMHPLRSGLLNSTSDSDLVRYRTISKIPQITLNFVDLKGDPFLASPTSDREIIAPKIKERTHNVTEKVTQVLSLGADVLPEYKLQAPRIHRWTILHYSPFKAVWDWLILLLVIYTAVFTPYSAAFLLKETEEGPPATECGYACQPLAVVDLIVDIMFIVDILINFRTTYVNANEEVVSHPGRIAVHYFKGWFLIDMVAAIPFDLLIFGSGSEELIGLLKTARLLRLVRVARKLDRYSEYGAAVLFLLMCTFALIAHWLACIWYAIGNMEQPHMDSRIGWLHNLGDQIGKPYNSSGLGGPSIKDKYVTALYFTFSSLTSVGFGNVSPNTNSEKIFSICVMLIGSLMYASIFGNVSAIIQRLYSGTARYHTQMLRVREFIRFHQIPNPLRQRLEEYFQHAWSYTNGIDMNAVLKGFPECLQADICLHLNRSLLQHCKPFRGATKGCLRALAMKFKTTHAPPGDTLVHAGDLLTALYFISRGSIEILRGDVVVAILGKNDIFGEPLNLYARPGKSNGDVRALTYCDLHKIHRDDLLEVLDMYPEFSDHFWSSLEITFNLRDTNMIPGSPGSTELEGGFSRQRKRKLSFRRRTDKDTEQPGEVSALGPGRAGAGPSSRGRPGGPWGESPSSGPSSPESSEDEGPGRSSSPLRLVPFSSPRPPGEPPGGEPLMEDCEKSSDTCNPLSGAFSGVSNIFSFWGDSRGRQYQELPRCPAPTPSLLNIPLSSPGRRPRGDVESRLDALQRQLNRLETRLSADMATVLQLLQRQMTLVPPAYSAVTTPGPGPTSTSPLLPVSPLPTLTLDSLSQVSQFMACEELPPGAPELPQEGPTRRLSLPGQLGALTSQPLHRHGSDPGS

Structure (SMILES) | EC50 [1] | logD (physchem) | microsomal CLint (in vitro) | Papp A→B (MDR1) | EC50 [2] | Emax [3] | Emax [5] | other results
Cn1c2c(c(=O)n1Cc1ccccc1)CCNCC2 | 2930 nM | 0 | < 7 µL/min/mg | 13 ×10⁻⁶ cm/s | > 10000 nM |  |  | 
N#Cc1ccc(Cn2nc3c(cc2=O)CCNCC3)cc1 | 6630 nM | -0.1 | < 7 µL/min/mg | 11 ×10⁻⁶ cm/s |  | 51% |  | Emax [4]: 42%
Cn1nc2c(cc1=O)CCNCC2 | 338 nM |  |  |  |  | 52% |  | Emax [4]: 32%
CC(C)CCn1nc2c(cc1=O)CCNCC2 | 62 nM | 0.6 | < 7 µL/min/mg |  |  | 77% |  | Emax [4]: 65%
O=c1c2c([nH]n1Cc1ccccc1)CCNCC2 | > 10000 nM | -0.5 |  | 2 ×10⁻⁶ cm/s | > 10000 nM | 57% |  | CL (Liver microsomes): 13 µL/min/mg
O=c1cc2c(nn1Cc1cccc(Cl)c1)CCNCC2 | 30 nM | 1.1 | < 7 µL/min/mg | 32 ×10⁻⁶ cm/s | 81 nM | 70% | 73% | 
O=c1cc2c(nn1Cc1ccccc1)CCNCC2 | 31 nM | 0.3 | < 7 µL/min/mg | 25 ×10⁻⁶ cm/s | 358 nM | 79% | 48% | Ratio EC50 (Homo sapiens): 10
O=c1cc2c(nn1Cc1ccc(Cl)cc1)CCNCC2 | 31 nM | 1.1 | < 7 µL/min/mg |  | 267 nM | 40% | 73% | 
O=c1cc2c(nn1Cc1ccc(C(F)(F)F)cc1)CCNCC2 | 125 nM | 1.1 | 10 µL/min/mg |  | 473 nM | 47% | 59% | 
O=c1cc2c(nn1Cc1ccc(OC(F)(F)F)cc1)CCNCC2 | 48 nM | 1.5 | < 7 µL/min/mg |  | > 10000 nM | 66% | 58% | 
c1ccc(COc2n[nH]c3c2CCNCC3)cc1 | 176 nM | 0.5 | < 7 µL/min/mg | 24 ×10⁻⁶ cm/s | 353 nM |  | 56% | 
O=c1cc2c(nn1Cc1ccccc1OC(F)(F)F)CCNCC2 | 107 nM | 1.2 | < 7 µL/min/mg |  | 142 nM | 57% | 86% | 
Cc1nnc2c3c(nc(Cc4ccccc4)n12)CCNCC3 |  |  |  |  |  |  |  | EC50 [6]: 1600 nM; Emax [7]: 36%
O=c1cc2c(nn1-c1ccccc1)CCNCC2 | > 10000 nM | -0.3 |  |  | > 10000 nM |  |  | 
c1ccc(Cn2cc3c(n2)CCNCC3)cc1 | 4980 nM | 0.1 | < 7 µL/min/mg | 27 ×10⁻⁶ cm/s | > 10000 nM | 65% |  | 
Clc1cccc(N2CCNCC2)c1 |  |  |  |  |  | 71% | 35% | 
O=c1[nH]n(Cc2ccccc2)c2c1CCNCC2 | > 10000 nM | -0.1 | < 7 µL/min/mg |  | > 10000 nM | 68% |  | 
O=c1cc2c(nn1Cc1ccccc1Cl)CCNCC2 | 33 nM | 0.9 | < 7 µL/min/mg |  | 94 nM | 56% | 67% | 
O=c1cc2c(nn1CCOc1ccccc1)CCNCC2 | > 10000 nM | 0.4 | < 7 µL/min/mg |  | > 10000 nM |  |  | 
Cc1nc2c3c(nc(Cc4ccccc4)n2n1)CCNCC3 |  |  |  |  |  |  |  | Efficacy (Canis familiaris): 20%; inhibition (INH) (Cytochrome P450 2C9): < 10%; inhibition (INH) (Cytochrome P450 3A4): < 10%; inhibition (INH) (Cytochrome P450 1A2): < 10%; EC50 [6]: 1800 nM; concentration at 1 h [8]: 89 nM; Ki [9]: > 22000 nM; Ki [10]: 3700 nM; Emax [7]: 40%; Ki [11]: 8200 nM; inhibition (INH) (Cytochrome P450 2D6): < 10%; Ki [12]: 7600 nM
O=c1cc2c(nn1Cc1ccc(C3CC3)cc1)CCNCC2 | 26 nM | 1.4 | < 7 µL/min/mg |  | 84 nM | 51% | 34% | 
